Like-named read-outs stand apart in the source and are kept apart here.
Legend:
[1] = system: NRF2 (NQO1 activity as marker for NRF2 activation), BEAS-2B cells; test: BEAS-2B NQO1 MTT Assay; format: cell-based; conditions: EC50 of NQO1 specific activity induction, 48 hours incubation, read-out: EC50
Outline: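 As a marker of NRF2 activation, NQO1 specific activity was read from the rate of absorbance change at 570 nm in MTT cocktail over 30 minutes. Lysates came from BEAS-2B cells treated for 48 hours at 37° C, and EC50 was derived by 3-parameter fitting.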

rats [2] = conditions: rats on a choline-deficient L-amino acid-defined diet; cited from earlier work
[3] = system: COPD macrophages and alveolar macrophages from cigarette smoke-exposed mice; conditions: cited from earlier work
rats [4] = conditions: cerebral ischemia-reperfusion model; cited from earlier work
mice = conditions: NRF2 wild-type vs KO mice after administration; cited from earlier work

**Q.** For CC[C@@H]1CN(Cc2cc([C@@H](c3ccc4c(nnn4CC)c3C)C(C)(C)C(=O)NC(CC(=O)O)C(=O)O)ccc2C)S(=O)(=O)c2ccccc2O1 (stereo partly drawn) [Example 202, 2-((S)-3-(3-(((R)-4-ethyl-1,1-dioxido-3,4-dihydro-2H-benzo[b][1,4,5]oxathiazepin-2-yl)methyl)-4-methylphenyl)-3-(1-ethyl-4-methyl-1H-benzo[d][1,2,3]triazol-5-yl)-2,2-dimethylpropanamido)succinic acid], which EC50 ([1]; Homo sapiens) is on record?
**A.** The EC50 was 1 to 10 nM.

**Q.** With CC[C@@H]1CN(Cc2cc([C@@H](c3ccc4c(nnn4CC)c3C)C(C)(C)C(=O)NC(CC(=O)O)CC(=O)O)ccc2C)S(=O)(=O)c2ccccc2O1 [Example 203, 3-((S)-3-(3-(((R)-4-ethyl-1,1-dioxido-3,4-dihydro-2H-benzo[b][1,4,5]oxathiazepin-2-yl)methyl)-4-methylphenyl)-3-(1-ethyl-4-methyl-1H-benzo[d][1,2,3]triazol-5-yl)-2,2-dimethylpropanamido)pentanedioic acid] as the compound, how does the EC50 ([1]; Homo sapiens) read?
**A.** Its EC50 is 1000 to 10000 nM.

**Q.** For CC[C@@H]1CN(Cc2cc([C@@H](c3ccc4c(nnn4CC)c3C)C(C)(C)C(=O)NC(CC(=O)O)c3ccncc3)ccc2C)S(=O)(=O)c2ccccc2O1 (stereo partly drawn) [Example 204, 3-((S)-3-(3-(((R)-4-ethyl-1,1-dioxido-3,4-dihydro-2H-benzo[b][1,4,5]oxathiazepin-2-yl)methyl)-4-methylphenyl)-3-(1-ethyl-4-methyl-1H-benzo[d][1,2,3]triazol-5-yl)-2,2-dimethylpropanamido)-3-(pyridin-4-yl)propanoic acid], which EC50 ([1]; Homo sapiens) is on record?
**A.** The EC50 was 100 to 1000 nM.

**Q.** Which EC50 ([1]; Homo sapiens) does the source give for CC[C@@H]1CN(Cc2cc([C@@H](c3ccc4c(nnn4CC)c3C)C(C)(C)C(=O)NC(C)C(=O)O)ccc2C)S(=O)(=O)c2ccccc2O1 (stereo partly drawn) [Example 205, 2-((S)-3-(3-(((R)-4-ethyl-1,1-dioxido-3,4-dihydro-2H-benzo[b][1,4,5]oxathiazepin-2-yl)methyl)-4-methylphenyl)-3-(1-ethyl-4-methyl-1H-benzo[d][1,2,3]triazol-5-yl)-2,2-dimethylpropanamido)propanoic acid] here?
**A.** The EC50 was 100 to 1000 nM.

**Q.** Which EC50 ([1]; Homo sapiens) does the source give for CC[C@@H]1CN(Cc2cc([C@@H](c3ccc4c(nnn4CC)c3C)C(C)(C)C(=O)NCCC(F)(F)F)ccc2C)S(=O)(=O)c2ccccc2O1 [Example 206, (S)-3-(3-(((R)-4-ethyl-1,1-dioxido-3,4-dihydro-2H-benzo[b][1,4,5]oxathiazepin-2-yl)methyl)-4-methylphenyl)-3-(1-ethyl-4-methyl-1H-benzo[d][1,2,3]triazol-5-yl)-2,2-dimethyl-N-(3,3,3-trifluoropropyl)propanamide] here?
**A.** Its EC50 is 10 to 100 nM.

**Q.** With CC[C@@H]1CN(Cc2cc([C@@H](c3ccc4c(nnn4CC)c3C)C(C)(C)C(=O)NC(C)(C)C(=O)O)ccc2C)S(=O)(=O)c2ccccc2O1 [Example 207, 2-((S)-3-(3-(((R)-4-ethyl-1,1-dioxido-3,4-dihydro-2H-benzo[b][1,4,5]oxathiazepin-2-yl)methyl)-4-methylphenyl)-3-(1-ethyl-4-methyl-1H-benzo[d][1,2,3]triazol-5-yl)-2,2-dimethylpropanamido)-2-methylpropanoic acid] as the compound, how does the EC50 ([1]; Homo sapiens) read?
**A.** The EC50 was 100 to 1000 nM.

**Q.** Which EC50 ([1]; Homo sapiens) does the source give for CC[C@@H]1CN(Cc2cc([C@@H](c3ccc4c(nnn4CC)c3C)C(C)(C)C(=O)NCC(N)=O)ccc2C)S(=O)(=O)c2ccccc2O1 [Example 208, (S)-N-(2-amino-2-oxoethyl)-3-(3-(((R)-4-ethyl-1,1-dioxido-3,4-dihydro-2H-benzo[b][1,4,5]oxathiazepin-2-yl)methyl)-4-methylphenyl)-3-(1-ethyl-4-methyl-1H-benzo[d][1,2,3]triazol-5-yl)-2,2-dimethylpropanamide] here?
**A.** The EC50 was 10 to 100 nM.

**Q.** With CC[C@@H]1CN(Cc2cc([C@@H](c3ccc4c(nnn4CC)c3C)C(C)(C)C(=O)N[C@@H](CCC(=O)O)C(=O)O)ccc2C)S(=O)(=O)c2ccccc2O1 [Example 209, (S)-2-((S)-3-(3-(((R)-4-ethyl-1,1-dioxido-3,4-dihydro-2H-benzo[b][1,4,5]oxathiazepin-2-yl)methyl)-4-methylphenyl)-3-(1-ethyl-4-methyl-1H-benzo[d][1,2,3]triazol-5-yl)-2,2-dimethylpropanamido)pentanedioic acid] as the compound, how does the EC50 ([1]; Homo sapiens) read?
**A.** The EC50 was 1000 to 10000 nM.

**Q.** For CC[C@@H]1CN(Cc2cc([C@@H](c3ccc4c(nnn4CC)c3C)C(C)(C)C(=O)N[C@H](CCC(=O)O)C(=O)O)ccc2C)S(=O)(=O)c2ccccc2O1 [Example 210, (R)-2-((S)-3-(3-(((R)-4-ethyl-1,1-dioxido-3,4-dihydro-2H-benzo[b][1,4,5]oxathiazepin-2-yl)methyl)-4-methylphenyl)-3-(1-ethyl-4-methyl-1H-benzo[d][1,2,3]triazol-5-yl)-2,2-dimethylpropanamido)pentanedioic acid], which EC50 ([1]; Homo sapiens) is on record?
**A.** Its EC50 is 100 to 1000 nM.

**Q.** For CC[C@@H]1CN(Cc2cc([C@@H](c3ccc4c(nnn4CC)c3C)C(C)(C)C(=O)N[C@@H](CC(N)=O)C(=O)O)ccc2C)S(=O)(=O)c2ccccc2O1 [Example 211, (S)-4-amino-2-((S)-3-(3-(((R)-4-ethyl-1,1-dioxido-3,4-dihydro-2H-benzo[b][1,4,5]oxathiazepin-2-yl)methyl)-4-methylphenyl)-3-(1-ethyl-4-methyl-1H-benzo[d][1,2,3]triazol-5-yl)-2,2-dimethylpropanamido)-4-oxobutanoic acid], which EC50 ([1]; Homo sapiens) is on record?
**A.** Its EC50 is 1000 to 10000 nM.

**Q.** With CC[C@@H]1CN(Cc2cc([C@@H](c3ccc4c(nnn4CC)c3C)C(C)(C)C(=O)N[C@H](CC(N)=O)C(=O)O)ccc2C)S(=O)(=O)c2ccccc2O1 [Example 212, (R)-4-amino-2-((S)-3-(3-(((R)-4-ethyl-1,1-dioxido-3,4-dihydro-2H-benzo[b][1,4,5]oxathiazepin-2-yl)methyl)-4-methylphenyl)-3-(1-ethyl-4-methyl-1H-benzo[d][1,2,3]triazol-5-yl)-2,2-dimethylpropanamido)-4-oxobutanoic acid] as the compound, how does the EC50 ([1]; Homo sapiens) read?
**A.** Its EC50 is 100 to 1000 nM.

**Q.** Which EC50 ([1]; Homo sapiens) does the source give for CC[C@@H]1CN(Cc2cc([C@@H](c3ccc4c(nnn4CC)c3C)C(C)(C)C(=O)N(CCC(=O)O)CC(=O)O)ccc2C)S(=O)(=O)c2ccccc2O1 [Example 213, 3-((S)-N-(carboxymethyl)-3-(3-(((R)-4-ethyl-1,1-dioxido-3,4-dihydro-2H-benzo[b][1,4,5]oxathiazepin-2-yl)methyl)-4-methylphenyl)-3-(1-ethyl-4-methyl-1H-benzo[d][1,2,3]triazol-5-yl)-2,2-dimethylpropanamido)propanoic acid] here?
**A.** Its EC50 is 10 to 100 nM.

**Q.** Which “progression of histologic abnormalities, especially hepatic fibrosis” value (rats [2]) does the source give for O=C(NCc1ccccn1)Nc1nnc(-c2ccco2)o1 [NK-252] here?
**A.** The value was “significantly attenuated”.

**Q.** Which results are given for C[S+]([O-])CCCCN=C=S (stereo not shown) [Sulforaphane]?
**A.** expression of Macrophage Receptor with Collagenous structure (MARCO) ([3]; COPD macrophages and alveolar macrophages from cigarette smoke-exposed mice): increases; bacterial phagocytosis and bacterial clearance ([3]; Pseudomonas aeruginosa, non-typable Haemophilus influenzae, ex vivo and in vivo): improving

**Q.** For Cc1c(-c2cnccn2)ssc1=S [oltipraz], which “progression of histologic abnormalities, especially hepatic fibrosis” value (rats [2]) is on record?
**A.** The value was “significantly attenuated”.

**Q.** For CC(C)(C)c1cc(O)ccc1O [tBHQ, tert-butylhydroquinone], which cortical damage (rats [4]) is on record?
**A.** The cortical damage was “reduced cortical damage”.

**Q.** And the cortical glutathione levels (mice)?
**A.** Its cortical glutathione levels is “increased in NRF2 wild-type but not KO mice”.

**Q.** For “(S)-3-(1,4-Dimethyl-1H-benzo[d][1,2,3]triazol-5-yl)-3-(3-(((R)-2-ethyl-2,3-dihydropyrido[3,44][1,4]oxazepin-4(5H)-yl)methyl)-4-methylphenyl)-2,2-dimethyl-N-(pyridin-3-yl)propanamide [Example 111]”, which EC50 [1] is on record?
**A.** The EC50 was 100 to 1000 nM.

Source: patent US11078216B2, “Bisaryl amides as NRF2 activators” (GLAXOSMITHKLINE INTELLECTUAL PROPERTY DEVELOPMENT LIMITED, priority 2016, dated 2021)
